According to US20250332173A1, “COMPOUNDS AND METHODS FOR MODULATING NUCLEIC ACID SPLICING” (REMIX THERAPEUTICS INC., priority 2021, published 2025):
Where two headings read alike, the source gives them in different places.

Key:
MYB = test: HiBiT protein abundance assay, MYB HiBiT K562 cell line; assay type: cell-based, human; settings: 24 hours, top dose 10 μM
Procedure, shortened: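 Endogenous targets in K562 knock-in lines carried a HiBiT tag and were treated for 24 h at 37 °C with 10-point 3-fold dilutions (top 10 μM final, DMSO ≤0.25%). Abundance was read as lytic Nano-Glo HiBiT luminescence. IC50 came from a four-parameter logistic fit of normalized response.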

[1] = tested on: K562 (human chronic myelogenous leukemia) cells; test: Cell Titer Glo 2.0 cell viability assay; assay type: cell-based; settings: Homo sapiens, K562, 72 h, K562 cells, 72 hours, Cell Titer Glo 2.0; read-out: K562 GI50
Target C = test: RT-qPCR splicing assay panel, Target C canonical junction (CJ) mRNA; assay type: cell-based, human; settings: Homo sapiens
Procedure, shortened: (§1)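 Exposure: 24 h, 37 °C, 11-point 3-fold dilutions from 10 uM final, DMSO at or below 0.25%, in A673 or K562 cells. Detection: cell-lysate RT-qPCR of canonical junction mRNA relative to GAPDH, GUSB or PPIA.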

SMN2 mRNA = test: RT-qPCR splicing assay, SMN2 canonical junction (CJ) mRNA; assay type: cell-based, human; settings: Homo sapiens
Procedure, shortened: as §1

[2] = HiBiT K562 cell line, read-out: Effect on protein abundance, MYB (IC50 category)
[3] = Table 5 panel, canonical junction qPCR, compound concentration having 50% response in CJ decrease, read-out: Target C IC50 (decrease in CJ mRNA levels)
[4] = Table 5 panel, canonical junction qPCR, compound concentration having 50% response in CJ decrease, read-out: SMN2 IC50 (decrease in CJ mRNA levels)
[5] = canonical junction qPCR panel, Table 5, read-out: Target C (decrease in CJ mRNA levels, IC50)
[6] = canonical junction qPCR panel, Table 5, read-out: SMN2 (decrease in CJ mRNA levels, IC50)
[7] = HiBiT lytic detection, modified K562 cells, read-out: Effect on protein abundance, MYB (IC50)

SMILES	IC50 (MYB; [2]) [µM]	GI50 [1] [µM]	IC50 (Target C; [3]) [µM]	IC50 (SMN2 mRNA; [4]) [µM]	IC50 (Target C; [5]) [µM]	IC50 (SMN2 mRNA; [6]) [µM]	IC50 (MYB; [7]) [µM]
Cc1nc2c(F)cc(-c3ccc4c(c3)CCN(C3CCNCC3)C4=O)cc2s1 [Compound 226]	1 to 10	1 to 10	> 10	0.1 to 1			
Cc1cn2cc(-c3ccc4c(=O)n(C5CCN(C)CC5)cnc4c3F)cc(F)c2n1 [Compound 227]	1 to 10	1 to 10	> 10	0.1 to 1			
Cc1cn2cc(-n3cnc4cc(N5CCNCC5)ccc4c3=O)cc(F)c2n1 [Compound 228]	0.1 to 1	0.1 to 1	0.1 to 1	0.1 to 1			
Cc1cn2cc(-n3cnc4cc(N5CCN(C)CC5)ccc4c3=O)cc(F)c2n1 [Compound 229]	> 10	> 10	> 10	> 10			
Cc1cn2cc(-c3cc(F)c4c(=O)n(C5CCNCC5)cnc4c3)cc(F)c2n1 [Compound 230]	< 0.1	0.1 to 1	< 0.1	< 0.1			
Cc1cn2cc(-c3cc(F)c4c(=O)n(C5CCN(C)CC5)cnc4c3)cc(F)c2n1 [Compound 231, 5-fluoro-7-{8-fluoro-2-methylimidazo[1,2-a]pyridin-6-yl}-3-(1-methylpiperidin-4-yl)quinazolin-4-one]	0.1 to 1	0.1 to 1	1 to 10	< 0.1			
Cc1cc(-c2cc(F)c3c(=O)n(C4CCNCC4)cnc3c2)cc2cn(C)nc12 [Compound 232]	< 0.1	0.1 to 1	0.1 to 1	< 0.1			
Cc1cc(-c2cc(F)c3c(=O)n(C4CCN(C)CC4)cnc3c2)cc2cn(C)nc12 [Compound 233]	0.1 to 1	0.1 to 1	1 to 10	< 0.1			
Cc1cc(-c2ccc3c(=O)n(C4CCNCC4)cnc3c2F)cc2cn(C)nc12 [Compound 234]	1 to 10	1 to 10	> 10	< 0.1			
Cc1cc(-c2ccc3c(=O)n(C4CCN(C)CC4)cnc3c2F)cc2cn(C)nc12 [Compound 235]	1 to 10	1 to 10	> 10	0.1 to 1			
Cc1cn2cc(-c3ccc4c(=O)n(C5CCNC6(CC6)C5)cnc4c3)cc(F)c2n1 (stereo not shown) [Compound 236]	0.1 to 1	0.1 to 1	0.1 to 1	< 0.1			
Cc1cn2cc(-c3ccc4c(=O)n(C5CCNC(C)(C)C5)cnc4c3)cc(F)c2n1 (stereo not shown) [Compound 237]	0.1 to 1	0.1 to 1	1 to 10	< 0.1			
Cc1cn2nc(-n3cnc4cc(N5CCNCC5)ccc4c3=O)cc(C)c2n1 [Compound 241]	1 to 10	1 to 10	1 to 10	1 to 10			
Cc1cn2nc(-c3cc(F)c4c(=O)n(C5CCN(C)CC5)cnc4c3)cc(C)c2n1 [Compound 242]	< 0.1	0.1 to 1	0.1 to 1	< 0.1			
Cc1cn2cc(-c3ncc4c(=O)n([C@H]5CCNC6(CC6)C5)ccc4n3)cc(F)c2n1 [Compound 1458, 6-[(7S)-4-azaspiro[2.5]octan-7-yl]-2-(8-fluoro-2-methyl-imidazo[1,2-a]pyridin-6-yl)pyrido[4,3-d]pyrimidin-5-one]	< 0.1	0.1 to 1			0.1 to 1	< 0.1	
Cc1c(O)c(-c2ncc3c(=O)n([C@H]4CC[C@H](N(C)C)CC4)ccc3n2)cc2cn(C)nc12 [Compound 1459, 6-((1r,4r)-4-(dimethylamino)cyclohexyl)-2-(6-hydroxy-2,7-dimethyl-2H-indazol-5-yl)pyrido[4,3-d]pyrimidin-5(6H)-one]	< 0.1	< 0.1			0.1 to 1	< 0.1	
Cc1c(O)c(-c2ncc3c(=O)n([C@H]4CC[C@@H](N(C)C)CC4)ccc3n2)cc2cn(C)nc12 [Compound 1460, 6-((1s,4s)-4-(dimethylamino)cyclohexyl)-2-(6-hydroxy-2,7-dimethyl-2H-indazol-5-yl)pyrido[4,3-d]pyrimidin-5(6H)-one]	0.1 to 1	0.1 to 1			1 to 10	< 0.1	
Cc1c(O)c(-c2ncc3c(=O)n([C@H]4CCN[C@H](C)C4)ccc3n2)cc2cn(C)nc12 [Compound 1461, 2-(6-hydroxy-2,7-dimethyl-indazol-5-yl)-6-[(2R,4S)-2-methyl-4-piperidyl]pyrido[4,3-d]pyrimidin-5-one]	< 0.1	< 0.1			0.1 to 1	< 0.1	
Cc1c(O)c(-c2ncc3c(=O)n([C@@H]4CCN[C@@H](C)C4)ccc3n2)cc2cn(C)nc12 [Compound 1462, 2-(6-hydroxy-2,7-dimethyl-indazol-5-yl)-6-[(2S,4R)-2-methyl-4-piperidyl]pyrido[4,3-d]pyrimidin-5-one]	< 0.1	< 0.1			0.1 to 1	< 0.1	
Cc1c(O)c(-c2ccc3c(=O)n([C@@H]4C[C@@H](C)N[C@@H](C)C4)ccc3n2)cc2cn(C)nc12 [Compound 1463, 6-[(2S,6R)-2,6-dimethyl-4-piperidyl]-2-(6-hydroxy-2,7-dimethyl-indazol-5-yl)-1,6-naphthyridin-5-one]	0.1 to 1	0.1 to 1			1 to 10	< 0.1	
Cc1c(O)c(-c2ccc3c(=O)n([C@H]4C[C@@H](C)N[C@@H](C)C4)ccc3n2)cc2cn(C)nc12 [Compound 1464, 6-[(2S,6R)-2,6-dimethyl-4-piperidyl]-2-(6-hydroxy-2,7-dimethyl-indazol-5-yl)-1,6-naphthyridin-5-one]	< 0.1	< 0.1			1 to 10	< 0.1	
Cn1cc2cc(-c3ncc4c(=O)n([C@H]5CCNC5)ccc4n3)c(O)c(F)c2n1 [Compound 1465]	0.1 to 1	0.1 to 1			0.1 to 1	< 0.1	
Cn1cc2cc(-c3ncc4c(=O)n([C@@H]5CCNC5)ccc4n3)c(O)c(F)c2n1 [Compound 1466]		0.1 to 1			0.1 to 1	< 0.1	0.1 to 1
Cc1c(O)c(-c2ccc3c(=O)n(C4CCNC4)cc(C)c3n2)cc2cn(C)nc12 (stereo not shown) [Compound 1467]		0.1 to 1			> 10	< 0.1	0.1 to 1
Cn1cc2cc(-c3ncc4c(=O)n(C56CCC(N)(CC5)C6)ccc4n3)c(O)c(F)c2n1 [Compound 1468]		< 0.1			0.1 to 1	< 0.1	< 0.1
Cc1cn2cc(-c3ncc4c(=O)n(C56CCC(N)(CC5)C6)ccc4n3)cc(F)c2n1 [Compound 1469, 6-(4-aminonorbornane-1-yl)-2-(8-fluoro-2-methyl-imidazo[1,2-a]pyridin-6-yl)pyrido[4,3-d]pyrimidin-5-one]		0.1 to 1			0.1 to 1	< 0.1	0.1 to 1
Cn1cc2cc(-c3ncc4c(=O)n(C56CCC(N)(CC5)C6)ccc4n3)c(O)cc2n1 [Compound 1470]		0.1 to 1			1 to 10	< 0.1	0.1 to 1
Cc1c(O)c(-c2ncc3c(=O)n([C@@H]4C[C@H]5COC[C@@H](C4)N5)ccc3n2)cc2cn(C)nc12 [Compound 1471]		0.1 to 1			0.1 to 1	< 0.1	0.1 to 1
